Laboratory results: patent publication US20050244916A1, “Methods for predicting protein activity based on identification of multidimensional signatures” (priority 2004, published 2005)
Entries after “also recorded” stand apart in the source; their conditions may differ.

B1: PBP: chemokine, platelet basic peptide (protein, UniProt P02775 35-128, looked up)
Platelet basic protein: SSTKGQTKRNLAKGKEESLDSDLYAELRCMCIKTTSGIHPKNIQSLEVIGKGTHCNQVEVIATLKDGRKICLDPDAPRIKKIVQKKLAGDESAD
modifications: Platelet basic protein
notes: chemokine, platelet basic peptide

Experiments:
[1] = literature statement, organisms not given; cited from earlier work
[2] = test system: Staphylococcus aureus (ATCC 27217), Bacillus subtilis (ATCC 6633), Escherichia coli (strain ML-35); assay: solid-phase radial diffusion antimicrobial assay, bacteria; assay type: cell-based; details: for antimicrobial activity compared with standard control defensin HNP-1: pH-specific, organism not specified (panel of bacteria and C. albicans); for antimicrobial activity against bacteria (zones of complete or partial inhibition): radial diffusion, pH 5.5 or pH 7.5, read after 24 h, S. aureus, B. subtilis, E. coli
Method: (§1) Standard radial diffusion assays were conducted using 10 μg of specified peptide: defensin HNP-1 (HNP); brazzein (BRZ); charybdotoxin (CTX); or metallothionein II (MTL). Recombinant brazzein reflecting the published 3-dimensional structure (1BRZ) as determined by nuclear magnetic resonance spectroscopy was kindly provided by Drs. J. L. Markley and F. M. Assadi-Porter, the University of Wisconsin 25. Charybdotoxin, metallothionein II, and defensin HNP-1 were obtained from commercial sources. Antimicrobial activity was assessed using a well-established solid-phase diffusion method as described by Tang et al., Infect. Immun. 70: 6524-6533 (2002). Assays included well characterized organisms: Staphylococcus aureus (ATCC 27217, Gram-positive coccus); Bacillus subtilis (ATCC 6633, Gram-positive bacillus); Escherichia coli (strain ML-35, Gram-negative bacillus); and Candida albicans (ATCC 36082, fungus). In brief, organisms were cultured to logarithmic phase and inoculated (106 colony forming units/ml) into buffered molecular-biology grade agarose at the indicated pH. Peptides resuspended in sterile deionized water were introduced into wells formed in the underlay, and incubated for 3 h at 37° C. Nutrient-containing overlay medium was then applied, and assays incubated at 37° C. or 30° C. for bacteria or fungi, respectively. After 24 h, zones of complete or partial inhibition were measured. All assays were repeated independently a minimum of two times at pH 5.5 (panels A-D) or pH 7.5 (panels E-H) to assess the influences of pH on peptide antimicrobial activities versus microorganisms. Histograms express mean (±standard deviation) zones of complete (blue) or incomplete (yellow) inhibition of growth. […] Note differences in scale.
(§2) These peptides were tested for antimicrobial activity against a panel of Gram-positive (Staphylococcus aureus, Bacillus subtilis) and Gram-negative (Escherichia coli) bacteria, and the fungus Candida albicans, using a well-established and sensitive in vitro assay [Antimicrobial activity was assessed using a well-established solid-phase diffusion method. Assays included well-characterized organisms: Staphylococcus aureus (ATCC 27217, Gram-positive); Bacillus subtilis (ATCC 6633, Gram-positive); Escherichia coli (strain ML-35, Gram-negative); and Candida albicans (ATCC 36082, fungus). In brief, organisms were cultured to logarithmic phase and inoculated at a density of 10^6 colony forming units/ml in buffered molecular grade agarose at the indicated pH. Five μg of peptide resuspended in sterile deionized water were introduced into wells formed in the underlay, and incubated for 3 h at 37° C. Nutrient-containing overlay medium was then applied, and assays incubated at 37° C. or 30° C. for bacteria or fungi, respectively. Defensin HNP-1 was tested in parallel as a standard control. After 24 h, zones of complete or partial inhibition were measured. All assays were repeated independently a minimum of two times. Tang et al., Infect. Immun. 70:6524 (2002) for detailed methodology.].

[3] = test system: Candida albicans (ATCC 36082); assay: solid-phase radial diffusion antimicrobial assay, fungus; assay type: cell-based; details: pH 5.5 or pH 7.5, read after 24 h
Method: as §1
as §2, with “Nutrient-containing overlay medium was then applied, and assays incubated at 37° C. or 30° C. for bacteria or fungi, respectively. Defensin HNP-1 was tested in parallel as a standard control.” left out, “All assays were repeated independently a minimum of two times. Tang et al., Infect. Immun. 70:6524 (2002) for detailed methodology.].” left out

Molecule	direct antimicrobial activity [1]	antimicrobial activity against bacteria (zones of complete or partial inhibition) [2]	antimicrobial activity against C. albicans (zones of complete or partial inhibition) [3]	also measured
IP-10/CXCL10: interferon-γ inducible protein-10 kDa	direct antimicrobial activity			
ITAC/CXCL11: interferon-inducible T cell α chemoattractant	direct antimicrobial activity			
MIG/CXCL9: monokine induced by interferon-γ	direct antimicrobial activity			
PF-4: chemokine, human platelet factor-4	direct antimicrobial activity			
RANTES: β-chemokine, releasable upon activation normal T cell expressed/secreted	direct antimicrobial activity			
brazzein: sweetener protein from Pentadiplandra (J'Oblie berry); recombinant, structure 1BRZ (QDKCKKVYENYPVSKCQLANQCNYDCKLDKHARSGECFYDEKRNLQCICDYCEY; UniProt P56552 1-54, looked up)		direct antimicrobial activities; also recorded: previously unrecognized antimicrobial activity; also recorded: exerted direct antimicrobial activity	direct antimicrobial activities; also recorded: previously unrecognized antimicrobial activity; also recorded: exerted direct antimicrobial activity	antimicrobial activity compared with standard control defensin HNP-1 [2]: in some conditions exceeded that of HNP-1
charybdotoxin		direct antimicrobial activities; also recorded: previously unrecognized antimicrobial activity; also recorded: exerted direct antimicrobial activity	direct antimicrobial activities; also recorded: previously unrecognized antimicrobial activity; also recorded: exerted direct antimicrobial activity	antimicrobial activity compared with standard control defensin HNP-1 [2]: in some conditions exceeded that of HNP-1
metallothionein II: prototype metallothionein (Saccharomyces, 1AOO) lacking the γ-core motif; comparator predicted to lack antimicrobial activity (QNEGHECQCQCGSCKNNEQCQKSCSCPTGCNSDDKCPCGNKSEETKKSCCSGK; UniProt P0CX80 9-61, looked up)		devoid of antimicrobial activity; also recorded: failed to exert antimicrobial activity	devoid of antimicrobial activity; also recorded: failed to exert antimicrobial activity	antimicrobial activity against bacteria (zones of complete or partial inhibition) ([2]; listed as Metallothionein II): lacked antimicrobial activity; antimicrobial activity against C. albicans (zones of complete or partial inhibition) ([3]; listed as Metallothionein II): lacked antimicrobial activity
B1	direct antimicrobial activity			
